{"source": "patent US20250235455A1", "about": "“AQUEOUS TICAGRELOR SOLUTIONS, METHOD OF MANUFACTURING AND USES” (HYLORIS DEVELOPMENTS SA, priority 2022, published 2025)", "key": {"[1]": {"test": "Impact of buffer strength on pH, osmolality, assay and impurities", "assay_type": "physicochemical", "method": "In addition, a screening was conducted on the impact of buffer strength on pH and osmolality."}, "[2]": {"test": "Solubility of ticagrelor in SBECD (appearance on shaking platform)", "assay_type": "physicochemical", "method": "In a first example two different types of cyclodextrin were used and compared for the solubilization of ticagrelor. An unbuffered stock solution of HPβCD or SBECD was made in water at the target concentrations of 20 w/w %, 25 w/w %, 30 w/w %, 35 w/w % and 40 w/w %. Ticagrelor was added slowly under vortex. Ticagrelor was used at concentrations of 5, 10 or 14 mg/ml in milli Q water. The ticagrelor-cyclodextrin solutions were left on a shaking platform. No sonification or heat was applied."}, "[3]": {"conditions": "Phosphate buffer pH 7.5 strength 0.19 mM"}, "[4]": {"conditions": "Phosphate buffer pH 7.5 strength 5 mM"}, "[5]": {"conditions": "Phosphate buffer pH 7.5 strength 10 mM"}, "[6]": {"conditions": "Phosphate buffer pH 7.5 strength 19 mM"}, "[7]": {"conditions": "SBECD 20% w/w, ticagrelor 5 mg/ml"}, "[8]": {"conditions": "SBECD 20% w/w, ticagrelor 10 mg/ml"}, "[9]": {"conditions": "SBECD 20% w/w, ticagrelor 14 mg/ml"}, "[10]": {"conditions": "SBECD 25% w/w, ticagrelor 5 mg/ml"}, "[11]": {"conditions": "SBECD 25% w/w, ticagrelor 10 mg/ml"}, "[12]": {"conditions": "SBECD 25% w/w, ticagrelor 14 mg/ml"}, "[13]": {"conditions": "SBECD 30% w/w, ticagrelor 5 mg/ml"}, "[14]": {"conditions": "SBECD 30% w/w, ticagrelor 10 mg/ml"}, "[15]": {"conditions": "SBECD 30% w/w, ticagrelor 14 mg/ml"}, "[16]": {"conditions": "SBECD 35% w/w, ticagrelor 5 mg/ml"}, "[17]": {"conditions": "SBECD 35% w/w, ticagrelor 10 mg/ml"}, "[18]": {"conditions": "SBECD 35% w/w, ticagrelor 14 mg/ml"}, "[19]": {"conditions": "SBECD 40% w/w, ticagrelor 5 mg/ml"}, "[20]": {"conditions": "SBECD 40% w/w, ticagrelor 10 mg/ml"}, "[21]": {"conditions": "SBECD 40% w/w, ticagrelor 14 mg/ml"}}, "data": [{"smiles": "CCCSc1nc(N[C@@H]2C[C@H]2c2ccc(F)c(F)c2)c2nnn([C@@H]3C[C@H](OCCO)[C@@H](O)[C@H]3O)c2n1", "note": "[Ticagrelor, (1S,2S,3R,5S)-3-{7-[(1R,2S)-2-(3,4-difluorophenyl)cyclopropylamino]5-(propylthio)-3H-(1,2,3)triazolo (4,5-D)pyrimidin-3-yl}-5-(2 hydroxyethoxy)cyclopentane-1,2-diol]", "values": [{"measurement": "Osmolality sample", "setting": "[1]; Phosphate buffer pH 7.5", "value": 809, "unit": "mOsm/kg"}, {"measurement": "Assay", "setting": "[1]; [3]", "value": 102.23, "unit": "%"}, {"measurement": "Total Impurities", "setting": "[1]; [3]", "value": 0.42, "unit": "%"}, {"measurement": "pH sample", "setting": "[1]; [3]", "value": 7.18}, {"measurement": "Assay", "setting": "[1]; [4]", "value": 100.49, "unit": "%"}, {"measurement": "Osmolality sample", "setting": "[1]; [4]", "value": 703, "unit": "mOsm/kg"}, {"measurement": "Total Impurities", "setting": "[1]; [4]", "value": 0.40, "unit": "%"}, {"measurement": "pH sample", "setting": "[1]; [4]", "value": 7.66}, {"measurement": "Assay", "setting": "[1]; [5]", "value": 102.98, "unit": "%"}, {"measurement": "Osmolality sample", "setting": "[1]; [5]", "value": 724, "unit": "mOsm/kg"}, {"measurement": "Total Impurities", "setting": "[1]; [5]", "value": 0.42, "unit": "%"}, {"measurement": "pH sample", "setting": "[1]; [5]", "value": 7.69}, {"measurement": "Assay", "setting": "[1]; [6]", "value": 102.58, "unit": "%"}, {"measurement": "Osmolality sample", "setting": "[1]; [6]", "value": 758, "unit": "mOsm/kg"}, {"measurement": "Total Impurities", "setting": "[1]; [6]", "value": 0.42, "unit": "%"}, {"measurement": "pH sample", "setting": "[1]; [6]", "value": 7.70}, {"measurement": "Appearance After 5 min of shaking", "setting": "[2]; [7]", "value": "− (translucent solution with precipitation)"}, {"measurement": "Appearance After 30 min of shaking", "setting": "[2]; [7]", "value": "− (translucent solution with precipitation)"}, {"measurement": "Appearance After 60 min of shaking", "setting": "[2]; [7]", "value": "− (translucent solution with precipitation)"}, {"measurement": "Appearance After 3 h of shaking", "setting": "[2]; [7]", "value": "− (translucent solution with precipitation)"}, {"measurement": "Appearance After overnight shaking", "setting": "[2]; [7]", "value": "− (translucent solution with precipitation)"}, {"measurement": "Appearance After 5 min of shaking", "setting": "[2]; [8]", "value": "− (translucent solution with precipitation)"}, {"measurement": "Appearance After 30 min of shaking", "setting": "[2]; [8]", "value": "− (translucent solution with precipitation)"}, {"measurement": "Appearance After 60 min of shaking", "setting": "[2]; [8]", "value": "− (translucent solution with precipitation)"}, {"measurement": "Appearance After 3 h of shaking", "setting": "[2]; [8]", "value": "− (translucent solution with precipitation)"}, {"measurement": "Appearance After overnight shaking", "setting": "[2]; [8]", "value": "− (translucent solution with precipitation)"}, {"measurement": "Appearance After 5 min of shaking", "setting": "[2]; [9]", "value": "− (translucent solution with precipitation)"}, {"measurement": "Appearance After 30 min of shaking", "setting": "[2]; [9]", "value": "− (translucent solution with precipitation)"}, {"measurement": "Appearance After 60 min of shaking", "setting": "[2]; [9]", "value": "− (translucent solution with precipitation)"}, {"measurement": "Appearance After 3 h of shaking", "setting": "[2]; [9]", "value": "− (translucent solution with precipitation)"}, {"measurement": "Appearance After overnight shaking", "setting": "[2]; [9]", "value": "− (translucent solution with precipitation)"}, {"measurement": "Appearance After 5 min of shaking", "setting": "[2]; [10]", "value": "− (translucent solution with precipitation)"}, {"measurement": "Appearance After 30 min of shaking", "setting": "[2]; [10]", "value": "− (translucent solution with precipitation)"}, {"measurement": "Appearance After 60 min of shaking", "setting": "[2]; [10]", "value": "− (translucent solution with precipitation)"}, {"measurement": "Appearance After 3 h of shaking", "setting": "[2]; [10]", "value": "− (translucent solution with precipitation)"}, {"measurement": "Appearance After overnight shaking", "setting": "[2]; [10]", "value": "− (translucent solution with precipitation)"}, {"measurement": "Appearance After 5 min of shaking", "setting": "[2]; [11]", "value": "− (translucent solution with precipitation)"}, {"measurement": "Appearance After 30 min of shaking", "setting": "[2]; [11]", "value": "− (translucent solution with precipitation)"}, {"measurement": "Appearance After 60 min of shaking", "setting": "[2]; [11]", "value": "− (translucent solution with precipitation)"}, {"measurement": "Appearance After 3 h of shaking", "setting": "[2]; [11]", "value": "− (translucent solution with precipitation)"}, {"measurement": "Appearance After overnight shaking", "setting": "[2]; [11]", "value": "− (translucent solution with precipitation)"}, {"measurement": "Appearance After 5 min of shaking", "setting": "[2]; [12]", "value": "− (translucent solution with precipitation)"}, {"measurement": "Appearance After 30 min of shaking", "setting": "[2]; [12]", "value": "− (translucent solution with precipitation)"}, {"measurement": "Appearance After 60 min of shaking", "setting": "[2]; [12]", "value": "− (translucent solution with precipitation)"}, {"measurement": "Appearance After 3 h of shaking", "setting": "[2]; [12]", "value": "− (translucent solution with precipitation)"}, {"measurement": "Appearance After overnight shaking", "setting": "[2]; [12]", "value": "− (translucent solution with precipitation)"}, {"measurement": "Appearance After 5 min of shaking", "setting": "[2]; [13]", "value": "− (translucent solution with precipitation)"}, {"measurement": "Appearance After 30 min of shaking", "setting": "[2]; [13]", "value": "− (translucent solution with precipitation)"}, {"measurement": "Appearance After 60 min of shaking", "setting": "[2]; [13]", "value": "− (translucent solution with precipitation)"}, {"measurement": "Appearance After 3 h of shaking", "setting": "[2]; [13]", "value": "− (translucent solution with precipitation)"}, {"measurement": "Appearance After overnight shaking", "setting": "[2]; [13]", "value": "− (translucent solution with precipitation)"}, {"measurement": "Appearance After 5 min of shaking", "setting": "[2]; [14]", "value": "− (translucent solution with precipitation)"}, {"measurement": "Appearance After 30 min of shaking", "setting": "[2]; [14]", "value": "− (translucent solution with precipitation)"}, {"measurement": "Appearance After 60 min of shaking", "setting": "[2]; [14]", "value": "− (translucent solution with precipitation)"}, {"measurement": "Appearance After 3 h of shaking", "setting": "[2]; [14]", "value": "− (translucent solution with precipitation)"}, {"measurement": "Appearance After overnight shaking", "setting": "[2]; [14]", "value": "− (translucent solution with precipitation)"}, {"measurement": "Appearance After 5 min of shaking", "setting": "[2]; [15]", "value": "− (translucent solution with precipitation)"}, {"measurement": "Appearance After 30 min of shaking", "setting": "[2]; [15]", "value": "− (translucent solution with precipitation)"}, {"measurement": "Appearance After 60 min of shaking", "setting": "[2]; [15]", "value": "− (translucent solution with precipitation)"}, {"measurement": "Appearance After 3 h of shaking", "setting": "[2]; [15]", "value": "− (translucent solution with precipitation)"}, {"measurement": "Appearance After overnight shaking", "setting": "[2]; [15]", "value": "− (translucent solution with precipitation)"}, {"measurement": "Appearance After 5 min of shaking", "setting": "[2]; [16]", "value": "− (translucent solution with precipitation)"}, {"measurement": "Appearance After 30 min of shaking", "setting": "[2]; [16]", "value": "+/−"}, {"measurement": "Appearance After 60 min of shaking", "setting": "[2]; [16]", "value": "+/−"}, {"measurement": "Appearance After 3 h of shaking", "setting": "[2]; [16]", "value": "+/−"}, {"measurement": "Appearance After overnight shaking", "setting": "[2]; [16]", "value": "− (translucent solution with precipitation)"}, {"measurement": "Appearance After 5 min of shaking", "setting": "[2]; [17]", "value": "− (translucent solution with precipitation)"}, {"measurement": "Appearance After 30 min of shaking", "setting": "[2]; [17]", "value": "− (translucent solution with precipitation)"}, {"measurement": "Appearance After 60 min of shaking", "setting": "[2]; [17]", "value": "− (translucent solution with precipitation)"}, {"measurement": "Appearance After 3 h of shaking", "setting": "[2]; [17]", "value": "− (translucent solution with precipitation)"}, {"measurement": "Appearance After overnight shaking", "setting": "[2]; [17]", "value": "− (translucent solution with precipitation)"}, {"measurement": "Appearance After 5 min of shaking", "setting": "[2]; [18]", "value": "− (translucent solution with precipitation)"}, {"measurement": "Appearance After 30 min of shaking", "setting": "[2]; [18]", "value": "− (translucent solution with precipitation)"}, {"measurement": "Appearance After 60 min of shaking", "setting": "[2]; [18]", "value": "− (translucent solution with precipitation)"}, {"measurement": "Appearance After 3 h of shaking", "setting": "[2]; [18]", "value": "− (translucent solution with precipitation)"}, {"measurement": "Appearance After overnight shaking", "setting": "[2]; [18]", "value": "− (translucent solution with precipitation)"}, {"measurement": "Appearance After 5 min of shaking", "setting": "[2]; [19]", "value": "− (translucent solution with precipitation)"}, {"measurement": "Appearance After 30 min of shaking", "setting": "[2]; [19]", "value": "+/−"}, {"measurement": "Appearance After 60 min of shaking", "setting": "[2]; [19]", "value": "+/−"}, {"measurement": "Appearance After 3 h of shaking", "setting": "[2]; [19]", "value": "+/−"}, {"measurement": "Appearance After overnight shaking", "setting": "[2]; [19]", "value": "+ (clear, appeared completely dissolved)"}, {"measurement": "Appearance After 5 min of shaking", "setting": "[2]; [20]", "value": "− (translucent solution with precipitation)"}, {"measurement": "Appearance After 30 min of shaking", "setting": "[2]; [20]", "value": "− (translucent solution with precipitation)"}, {"measurement": "Appearance After 60 min of shaking", "setting": "[2]; [20]", "value": "− (translucent solution with precipitation)"}, {"measurement": "Appearance After 3 h of shaking", "setting": "[2]; [20]", "value": "− (translucent solution with precipitation)"}, {"measurement": "Appearance After overnight shaking", "setting": "[2]; [20]", "value": "− (translucent solution with precipitation)"}, {"measurement": "Appearance After 5 min of shaking", "setting": "[2]; [21]", "value": "− (translucent solution with precipitation)"}, {"measurement": "Appearance After 30 min of shaking", "setting": "[2]; [21]", "value": "− (translucent solution with precipitation)"}, {"measurement": "Appearance After 60 min of shaking", "setting": "[2]; [21]", "value": "− (translucent solution with precipitation)"}, {"measurement": "Appearance After 3 h of shaking", "setting": "[2]; [21]", "value": "− (translucent solution with precipitation)"}, {"measurement": "Appearance After overnight shaking", "setting": "[2]; [21]", "value": "− (translucent solution with precipitation)"}]}]}
